In ChEMBL document CHEMBL2074356, “Direct evidence for peptide transporter (PepT1)-mediated uptake of a nonpeptide prodrug, valacyclovir” (Biochem Biophys Res Commun, 1998):
Non-standard residues stand in square brackets, D forms with d. Residues, ends and D or L forms follow the SMILES beside them. Sar = CNCC(=O)O

What was measured:
[1] = target: T1, Solute carrier family 15 member 1 (Homo sapiens) (UniProt P46059); test: TP_TRANSPORTER: inhibition of VACV uptake (VACV: 0.2 uM, Gly-Gly-Gly: 10000 uM) in Xenopus laevis oocytes; assay type: functional, cell-based; details: Oocyte
T1 sequence (whole entry): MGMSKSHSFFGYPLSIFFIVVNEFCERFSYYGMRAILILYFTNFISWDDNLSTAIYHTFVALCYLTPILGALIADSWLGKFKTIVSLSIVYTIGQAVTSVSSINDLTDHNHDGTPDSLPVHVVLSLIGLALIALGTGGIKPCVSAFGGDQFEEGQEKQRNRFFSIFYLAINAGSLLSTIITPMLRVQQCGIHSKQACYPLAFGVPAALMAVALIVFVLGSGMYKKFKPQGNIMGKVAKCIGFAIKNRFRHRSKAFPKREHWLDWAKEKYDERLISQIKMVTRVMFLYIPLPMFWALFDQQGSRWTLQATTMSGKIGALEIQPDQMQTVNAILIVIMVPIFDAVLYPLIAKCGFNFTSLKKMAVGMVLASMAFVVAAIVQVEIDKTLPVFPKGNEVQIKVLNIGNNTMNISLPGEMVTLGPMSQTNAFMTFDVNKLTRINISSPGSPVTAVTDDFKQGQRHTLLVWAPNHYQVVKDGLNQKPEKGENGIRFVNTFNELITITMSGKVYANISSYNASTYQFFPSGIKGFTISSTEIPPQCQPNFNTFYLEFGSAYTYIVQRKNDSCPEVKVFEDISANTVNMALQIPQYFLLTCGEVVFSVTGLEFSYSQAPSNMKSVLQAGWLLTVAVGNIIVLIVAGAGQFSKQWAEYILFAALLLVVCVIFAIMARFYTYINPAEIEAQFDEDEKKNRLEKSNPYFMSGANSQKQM

[2] = target: T1, Solute carrier family 15 member 1 (Homo sapiens); test: TP_TRANSPORTER: inhibition of VACV uptake (VACV: 0.2 uM, Gly-Sar: 10000 uM) in Xenopus laevis oocytes; assay type: functional, cell-based; details: Oocyte
[3] = target: T1, Solute carrier family 15 member 1 (Homo sapiens); test: TP_TRANSPORTER: inhibition of VACV uptake (VACV: 0.2 uM, Carnosine: 10000 uM) in Xenopus laevis oocytes; assay type: functional, cell-based; details: Oocyte
[4] = target: T2, Solute carrier family 15 member 1 (Homo sapiens, UniProt P46059); test: TP_TRANSPORTER: inhibition of Gly-Sar uptake in Xenopus laevis oocytes; assay type: functional, cell-based, Oocyte
T2 sequence (P46059 whole entry): T1 sequence (whole entry)

[5] = substrate: CC(C)[C@H](N)C(=O)OCCOCn1cnc2c(=O)nc(N)[nH]c21; details: Xenopus laevis; Oocyte

## NCC(=O)NCC(=O)NCC(=O)O
[1]
  Activity: inhibitor [55% (at a rough estimate) of control]

## CN(CC(=O)O)C(=O)CN (H-Gly-[Sar]-OH)
[2]
  Activity: inhibitor [55% (at a rough estimate) of control]

## NCCC(=O)N[C@@H](Cc1c[nH]cn1)C(=O)O
[3]
  Activity: inhibitor [70% (at a rough estimate) of control]

## CC(C)[C@H](N)C(=O)OCCOCn1cnc2c(=O)[nH]c(N)nc21 [VALACYCLOVIR]
[4]
  Ki: 4.08 mM

B1: Solute carrier family 15 member 1 (Homo sapiens), P46059 (protein)
chain: T1 sequence (whole entry)
[5]
  Km: 5.94 mM
